Assay results taken from patent US20130052145A1, “ADHESIVE SLOW-RELEASE FORMULATIONS FOR THE LOCAL ADMINISTRATION OF CURCUMIN” (Orphanidis Pharma Research GmbH, priority 2010, published 2013).

Key:
[1] = Solubility studies with curcumin in organic solvents and solvent + water mixtures; type: physicochemical
Method: For oral solutions, curcumin must be dissolved. The solvents listed in Table 1 have been tested for this purpose. The maximum concentration of curcumin that could be dissolved is listed for each solvent. If curcumin was soluble, water was added to the solvents and the solubility in this mixture was also determined: […]

[2] = Storage stability of liquid curcumin formulations under accelerated conditions (HPLC); type: physicochemical

## COc1cc(/C=C/C(=O)CC(=O)/C=C/c2ccc(O)c(OC)c2)ccc1O [curcumin]
[1]; Collidone 12 + water 4 + 6
  % Solubility (w/v): 0 % (w/v)
[1]; Collidone12 + water 5 + 5
  % Solubility (w/v): 0 % (w/v)
[1]; Collidone 17 + water 4 + 6
  % Solubility (w/v): 0 % (w/v)
[1]; Collidone 17 + water 5 + 5
  % Solubility (w/v): 0 % (w/v)
[1]; N-Ethyl-2-pyrrolidone + water 6 + 4
  % Solubility (w/v): 4 % (w/v)
[1]; N-Ethyl-2-pyrrolidone + water 7 + 3
  % Solubility (w/v): 5 % (w/v)
[1]; N-Methyl-2-pyrrolidone + water 6 + 4
  % Solubility (w/v): 4 % (w/v)
[1]; N-Methyl-2-pyrrolidone + water 7 + 3
  % Solubility (w/v): 4 % (w/v)
[1]; PEG 300 + water 8 + 2
  % Solubility (w/v): 2.5 % (w/v)
[1]; PEG 300 + water 9 + 1
  % Solubility (w/v): 2.5 % (w/v)
[1]; PVP + water 3 + 7
  % Solubility (w/v): 0 % (w/v)
[1]; Pluronic F-68 + water 3 + 7
  % Solubility (w/v): 0 % (w/v)
[1]; Pyrrolidone + water 1 + 9
  % Solubility (w/v): 1 % (w/v)
[1]; Pyrrolidone + water 5 + 5
  % Solubility (w/v): 2.5 % (w/v)
[1]; Pyrrolidone + water 6 + 4
  % Solubility (w/v): 3 % (w/v)
[1]; Pyrrolidone + water 7 + 3
  % Solubility (w/v): 5 % (w/v)
[1]; Pyrrolidone + water 9 + 1
  % Solubility (w/v): 5 % (w/v)
[1]; solvent Capmul
  % Solubility (w/v): 0 % (w/v)
[1]; solvent Cremophor
  % Solubility (w/v): 0 % (w/v)
[1]; solvent Dimethylacetamide
  % Solubility (w/v): 4 % (w/v)
[1]; solvent Glycerol
  % Solubility (w/v): 0 % (w/v)
[1]; solvent Hydrogenated peanut oil
  % Solubility (w/v): 0 % (w/v)
[1]; solvent Labrafil
  % Solubility (w/v): 3 % (w/v)
[1]; solvent Labrasol
  % Solubility (w/v): 0 % (w/v)
[1]; solvent N-Ethyl-2-pyrrolidone
  % Solubility (w/v): 30 % (w/v)
[1]; solvent N-Methyl-2-pyrrolidone
  % Solubility (w/v): 30 % (w/v)
[1]; solvent PEG 300
  % Solubility (w/v): 2.5 % (w/v)
[1]; solvent PVA
  % Solubility (w/v): 0 % (w/v)
[1]; solvent Pluronic L44
  % Solubility (w/v): 3 % (w/v)
[1]; solvent Propylene glycol
  % Solubility (w/v): 0 % (w/v)
[1]; solvent Pyrrolidone
  % Solubility (w/v): 20 % (w/v)
[1]; solvent Refined corn oil
  % Solubility (w/v): 0 % (w/v)
[2]
  Stability in storage of curcumin in PEG formulations: comparatively high stability in storage
